# Results as given in PubChem BioAssay AID1963972 (Molecular Pharmacology Branch, DTP, NCI, 2024).
# Test system: 945468-187-T-J2-PDC spheroids viability
# Assay: Anticancer human tumor 945468-187-T-J2-PDC patient-derived rectal carcinoma cell line growth inhibition [PI3K]
# Conditions: spheroids with HUVEC and MSC; for IC50: curve of first compound; for viability, T/C: stronger effect = lower value
# How it was run: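 High-throughput combination screen: PI3K inhibitors crossed with targeted small molecules on complex spheroids of tumor cells, HUVEC and MSCs at 37 degrees C, 5% CO2. Top concentration was at or near clinical Cmax (otherwise 10 microM), with half-log decrements.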
# [1] = second compound 0.00316 µM, first compound 0.0316 µM
# [2] = second compound 0.00316 µM, first compound 0.1 µM
# [3] = second compound 0.01 µM, first compound 0.0316 µM
# [4] = second compound 0.01 µM, first compound 0.1 µM
# [5] = second compound 0.0316 µM, first compound 0.0316 µM
# [6] = second compound 0.0316 µM, first compound 0.1 µM
# [7] = second compound 0.1 µM, first compound 0.0316 µM
# [8] = second compound 0.1 µM, first compound 0.1 µM
# [9] = second compound 0.316 µM, first compound 0.0316 µM
# [10] = second compound 0.316 µM, first compound 0.1 µM
# [11] = second compound 1 µM, first compound 0.0316 µM
# [12] = second compound 1 µM, first compound 0.1 µM
# 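Note: spheroids exposed to compounds for seven days before reading.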
smiles,measurement,setting,value
CC(=O)c1c(C)c2cnc(Nc3ccc(N4CCNCC4)cn3)nc2n(C2CCCC2)c1=O + COc1c(OCCCN2CCOCC2)ccc2c3n(c(=NC(=O)c4cnc(N)nc4)nc12)CCN3,IC50,second compound 0.00316 µM,> 100 nM
same,IC50,second compound 0.01 µM,> 100 nM
same,IC50,second compound 0.0316 µM,> 100 nM
same,IC50,second compound 0.1 µM,> 100 nM
same,IC50,second compound 0.316 µM,< 0.316 nM
same,IC50,second compound 1 µM,< 0.316 nM
same,"viability, T/C","second compound 0.00316 µM, first compound 0.000316 µM",101%
same,"viability, T/C","second compound 0.00316 µM, first compound 0.001 µM",96.6%
same,"viability, T/C","second compound 0.00316 µM, first compound 0.00316 µM",110%
same,"viability, T/C","second compound 0.00316 µM, first compound 0.01 µM",103%
same,"viability, T/C",[1],96.3%
same,"viability, T/C",[2],112%
same,"viability, T/C","second compound 0.01 µM, first compound 0.000316 µM",135%
same,"viability, T/C","second compound 0.01 µM, first compound 0.001 µM",135%
same,"viability, T/C","second compound 0.01 µM, first compound 0.00316 µM",120%
same,"viability, T/C","second compound 0.01 µM, first compound 0.01 µM",108%
same,"viability, T/C",[3],110%
same,"viability, T/C",[4],130%
same,"viability, T/C","second compound 0.0316 µM, first compound 0.000316 µM",115%
same,"viability, T/C","second compound 0.0316 µM, first compound 0.001 µM",95.4%
same,"viability, T/C","second compound 0.0316 µM, first compound 0.00316 µM",101%
same,"viability, T/C","second compound 0.0316 µM, first compound 0.01 µM",105%
same,"viability, T/C",[5],118%
same,"viability, T/C",[6],113%
same,"viability, T/C","second compound 0.1 µM, first compound 0.000316 µM",102%
same,"viability, T/C","second compound 0.1 µM, first compound 0.001 µM",101%
same,"viability, T/C","second compound 0.1 µM, first compound 0.00316 µM",115%
same,"viability, T/C","second compound 0.1 µM, first compound 0.01 µM",80%
same,"viability, T/C",[7],85.5%
same,"viability, T/C",[8],89.9%
same,"viability, T/C","second compound 0.316 µM, first compound 0.000316 µM",38.6%
same,"viability, T/C","second compound 0.316 µM, first compound 0.001 µM",36.7%
same,"viability, T/C","second compound 0.316 µM, first compound 0.00316 µM",45.7%
same,"viability, T/C","second compound 0.316 µM, first compound 0.01 µM",40.9%
same,"viability, T/C",[9],36.2%
same,"viability, T/C",[10],37.4%
same,"viability, T/C","second compound 1 µM, first compound 0.000316 µM",24.2%
same,"viability, T/C","second compound 1 µM, first compound 0.001 µM",21.4%
same,"viability, T/C","second compound 1 µM, first compound 0.00316 µM",28.7%
same,"viability, T/C","second compound 1 µM, first compound 0.01 µM",21.6%
same,"viability, T/C",[11],22.8%
same,"viability, T/C",[12],18.5%
CNC(=O)c1ccc(N2C(=S)N(c3ccc(C#N)c(C(F)(F)F)c3)C(=O)C2(C)C)cc1F + COc1c(OCCCN2CCOCC2)ccc2c3n(c(=NC(=O)c4cnc(N)nc4)nc12)CCN3,IC50,second compound 0.00316 µM,> 10000 nM
same,IC50,second compound 0.01 µM,> 10000 nM
same,IC50,second compound 0.0316 µM,> 10000 nM
same,IC50,second compound 0.1 µM,> 10000 nM
same,IC50,second compound 0.316 µM,< 31.6 nM
same,IC50,second compound 1 µM,< 31.6 nM
same,"viability, T/C",[1],107%
same,"viability, T/C",[2],86.3%
same,"viability, T/C","second compound 0.00316 µM, first compound 0.316 µM",94.9%
same,"viability, T/C","second compound 0.00316 µM, first compound 1 µM",113%
same,"viability, T/C","second compound 0.00316 µM, first compound 3.16 µM",91.1%
same,"viability, T/C","second compound 0.00316 µM, first compound 10 µM",80%
same,"viability, T/C",[3],95.5%
same,"viability, T/C",[4],92.2%
same,"viability, T/C","second compound 0.01 µM, first compound 0.316 µM",108%
same,"viability, T/C","second compound 0.01 µM, first compound 1 µM",110%
same,"viability, T/C","second compound 0.01 µM, first compound 3.16 µM",90.9%
same,"viability, T/C","second compound 0.01 µM, first compound 10 µM",72.1%
same,"viability, T/C",[5],87.8%
same,"viability, T/C",[6],93.1%
same,"viability, T/C","second compound 0.0316 µM, first compound 0.316 µM",113%
same,"viability, T/C","second compound 0.0316 µM, first compound 1 µM",111%
same,"viability, T/C","second compound 0.0316 µM, first compound 3.16 µM",93%
same,"viability, T/C","second compound 0.0316 µM, first compound 10 µM",109%
same,"viability, T/C",[7],102%
same,"viability, T/C",[8],94%
same,"viability, T/C","second compound 0.1 µM, first compound 0.316 µM",95.9%
same,"viability, T/C","second compound 0.1 µM, first compound 1 µM",81.2%
same,"viability, T/C","second compound 0.1 µM, first compound 3.16 µM",82%
same,"viability, T/C","second compound 0.1 µM, first compound 10 µM",64.4%
same,"viability, T/C",[9],33.8%
same,"viability, T/C",[10],39.6%
same,"viability, T/C","second compound 0.316 µM, first compound 0.316 µM",48.2%
same,"viability, T/C","second compound 0.316 µM, first compound 1 µM",38.6%
same,"viability, T/C","second compound 0.316 µM, first compound 3.16 µM",38.5%
same,"viability, T/C","second compound 0.316 µM, first compound 10 µM",34.7%
same,"viability, T/C",[11],18.2%
same,"viability, T/C",[12],21.1%
same,"viability, T/C","second compound 1 µM, first compound 0.316 µM",17.2%
same,"viability, T/C","second compound 1 µM, first compound 1 µM",23.1%
same,"viability, T/C","second compound 1 µM, first compound 3.16 µM",23.3%
same,"viability, T/C","second compound 1 µM, first compound 10 µM",21%
